Results from patent publication US20240400555A1 (Initial Therapeutics, Inc., priority 2023, published 2024).
Where two headings read alike, the source gives them in different places.

Tested on: MV-4-11 cells
Assay: Cell Viability Assay in MV-4-11 Cells
Assay type: cell-based
Conditions: Homo sapiens, MV4-11, 72 h
Procedure, shortened: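 MV-4-11 cells at 7,000/well in IMDM with 10% FBS, exposed to compound for 72 h. Viability by CellTiter-Glo luminescence, normalized to DMSO as 100%, fitted with a four-parameter curve.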

[1] = MV-4-11 cells, 72 h, Cell-Titer Glo, read-out: IC50

| SMILES | IC50 [1] [nM] | IC50 [nM] |
| --- | --- | --- |
| Cc1nnc(-c2ccc(C(=O)N(c3nccc4cc(Cl)cc(C)c34)[C@@H]3CCCNC3)c(F)c2)s1 [Example 815, (R)—N-(6-chloro-8-methylisoquinolin-1-yl)-2-fluoro-4-(5-methyl-1,3,4-thiadiazol-2-yl)-N-(piperidin-3-yl)benzamide] | 69 | – |
| Cc1cc(Cl)cc2ccnc(N(C(=O)c3ccc(-c4cn(C)nn4)cc3Cl)[C@@H]3CCCNC3)c12 [Example 816, (R)-2-chloro-N-(6-chloro-8-methylisoquinolin-1-yl)-4-(1-methyl-1H-1,2,3-triazol-4-yl)-N-(piperidin-3-yl)benzamide] | 140 | – |
| Cc1nnc(-c2ccc(C(=O)N(c3nccc4sc(C#CCCC(N)=O)cc34)[C@@H]3CCCNC3)c(F)c2)s1 [Example 817, N-[2-(5-amino-5-oxo-pent-1-ynyl)thieno[3,2-c]pyridin-4-yl]-2-fluoro-4-(5-methyl-1,3,4-thiadiazol-2-yl)-N-[(3R)-3-piperidyl]benzamide] | 3600 | – |
| Cc1nnc(-c2ccc(C(=O)N(c3nccc4sc(C#CCCO)cc34)[C@@H]3CCCNC3)c(F)c2)s1 [Example 818, (R)-2-fluoro-N-(2-(4-hydroxybut-1-yn-1-yl)thieno[3,2-c]pyridin-4-yl)-4-(5-methyl-1,3,4-thiadiazol-2-yl)-N-(piperidin-3-yl)benzamide] | 1300 | – |
| Cc1c(-c2ccc(C(=O)N(c3nccc4sc(-c5ccc(C(N)=O)cc5)cc34)[C@@H]3CCCNC3)c(F)c2)nnn1C [Example 819, N-[2-(4-carbamoylphenyl)thieno[3,2-c]yridine-4-yl]-4-(1,5-dimethyltriazol-4-yl)-2-fluoro-N-[(3R)-3-piperidyl]benzamide] | 1000 | – |
| Cc1sc2ccnc(N(C(=O)c3ccc(-n4nnc5cccnc54)cc3F)[C@@H]3CCCNC3)c2c1C [Example 820, (R)-4-(3H-[1,2,3]triazolo[4,5-b]pyridin-3-yl)-N-(2,3-dimethylthieno[3,2-c]pyridin-4-yl)-2-fluoro-N-(piperidin-3-yl)benzamide] | 220 | – |
| CCn1cc(-c2ccc(C(=O)N(c3nccc4cccc(C)c34)[C@@H]3CCCNC3)c(F)c2)nn1 [Example 821, (R)-4-(1-ethyl-1H-1,2,3-triazol-4-yl)-2-fluoro-N-(8-methylisoquinolin-1-yl)-N-(piperidin-3-yl)benzamide] | 67 | – |
| Cc1cccc2ccnc(N(C(=O)c3ccc(-c4cn(C)nn4)cc3Cl)[C@@H]3CCCNC3)c12 [Example 822, (R)-2-chloro-4-(1-methyl-1H-1,2,3-triazol-4-yl)-N-(8-methylisoquinolin-1-yl)-N-(piperidin-3-yl)benzamide] | 390 | – |
| Cc1cccc2ccnc(N(C(=O)c3ccc(Nc4ncc5ccsc5n4)cc3F)[C@@H]3CCCNC3)c12 [Example 823, (R)-2-fluoro-N-(8-methylisoquinolin-1-yl)-N-(piperidin-3-yl)-4-(thieno[2,3-d]pyrimidin-2-ylamino)benzamide] | 130 | – |
| Cc1cccc2ccnc(N(C(=O)c3ccc(Nc4ncc5ccccc5n4)cc3F)[C@@H]3CCCNC3)c12 [Example 824, (R)-2-fluoro-N-(8-methylisoquinolin-1-yl)-N-(piperidin-3-yl)-4-(quinazolin-2-ylamino)benzamide] | 130 | – |
| NC(=O)c1ccc(-c2cc3c(N(C(=O)c4ccc(-c5cnn6c5CCCC6)cc4F)[C@@H]4CCCNC4)nccc3s2)cc1 [Example 825, N-[2-(4-carbamoylphenyl)thieno[3,2-c]pyridin-4-yl]-2-fluoro-N-[(3R)-3-piperidyl]-4-(4,5,6,7-tetrahydropyrazolo[1,5-a]pyridin-3-yl)benzamide] | 1000 | – |
| NC(=O)c1ccc(-c2cc3c(N(C(=O)c4ccc(-n5cnc6ccccc65)cc4F)[C@@H]4CCCNC4)nccc3s2)cc1 [Example 826, 4-(benzimidazol-1-yl)-N-[2-(4-carbamoylphenyl)thieno[3,2-c]pyridin-4-yl]-2-fluoro-N-[(3R)-3-piperidyl]benzamide] | 4400 | – |
| Cc1nnc(-c2ccc(C(=O)N(c3nccc4sc(-c5ccc(C(N)=O)cc5)cc34)[C@@H]3CCCNC3)c(F)c2)s1 [Example 827, N-[2-(4-carbamoylphenyl)thieno[3,2-c]pyridin-4-yl]-2-fluoro-4-(5-methyl-1,3,4-thiadiazol-2-yl)-N-[(3R)-3-piperidyl]benzamide] | 910 | – |
| Cn1cc(-c2ccc(C(=O)N(c3nccc4cc(Cc5cccnc5)ccc34)[C@@H]3CCCNC3)c(F)c2)nn1 [Example 828, (R)-2-fluoro-4-(1-methyl-1H-1,2,3-triazol-4-yl)-N-(piperidin-3-yl)-N-(6-(pyridin-3-ylmethyl)isoquinolin-1-yl)benzamide] | 1000 | – |
| Cc1cc(F)cc2ccnc(N(C(=O)c3ccc(-c4nnn(C)c4C)cc3F)[C@@H]3CCCNC3)c12 [Example 829, (R)-4-(1,5-dimethyl-1H-1,2,3-triazol-4-yl)-2-fluoro-N-(6-fluoro-8-methylisoquinolin-1-yl)-N-(piperidin-3-yl)benzamide] | 130 | – |
| Cc1cccc2ccnc(N(C(=O)c3ccc(-c4nnn(C)c4C)cc3F)[C@@H]3CCCNC3)c12 [Example 830, (R)-4-(1,5-dimethyl-1H-1,2,3-triazol-4-yl)-2-fluoro-N-(8-methylisoquinolin-1-yl)-N-(piperidin-3-yl)benzamide] | 210 | – |

| SMILES | IC50 [1] [nM] | IC50 [nM] |
| --- | --- | --- |
| Cc1sc2ccnc(N(C(=O)c3ccc(-c4cn(C)nn4)cc3F)[C@@H]3CCCNC3)c2c1C [Example 831, (R)—N-(2,3-dimethylthieno[3,2-c]pyridin-4-yl)-2-fluoro-4-(1-methyl-1H-1,2,3-triazol-4-yl)-N-(piperidin-3-yl)benzamide] | 440 | – |
| CCc1nnc(-c2ccc(C(=O)N(c3nccc4cc(F)cc(C)c34)[C@@H]3CCCNC3)c(F)c2)s1 [Example 832, (R)-4-(5-ethyl-1,3,4-thiadiazol-2-yl)-2-fluoro-N-(6-fluoro-8-methylisoquinolin-1-yl)-N-(piperidin-3-yl)benzamide] | 120 | – |
| Cc1nnc(-c2ccc(C(=O)N(c3nccc4cc(F)cc(C)c34)[C@@H]3CCCNC3)c(F)c2)s1 [Example 833, (R)-2-fluoro-N-(6-fluoro-8-methylisoquinolin-1-yl)-4-(5-methyl-1,3,4-thiadiazol-2-yl)-N-(piperidin-3-yl)benzamide] | 120 | – |
| Cn1cc(-c2ccc(C(=O)N(c3nccc4cc(-c5ccc(CN)cc5)ccc34)[C@@H]3CCCNC3)c(F)c2)nn1 [Example 834, (R)—N-(6-(4-(aminomethyl)phenyl)isoquinolin-1-yl)-2-fluoro-4-(1-methyl-1H-1,2,3-triazol-4-yl)-N-(piperidin-3-yl)benzamide] | 140 | – |
| Cc1cccc2ccnc(N(C(=O)c3ccc(-c4nnc(C5CC5)s4)cc3F)[C@@H]3CCCNC3)c12 [Example 836, (R)-4-(5-cyclopropyl-1,3,4-thiadiazol-2-yl)-2-fluoro-N-(8-methylisoquinolin-1-yl)-N-(piperidin-3-yl)benzamide] | 89 | – |
| CCc1nnc(-c2ccc(C(=O)N(c3nccc4cccc(C)c34)[C@@H]3CCCNC3)c(F)c2)s1 [Example 837, (R)-4-(5-ethyl-1,3,4-thiadiazol-2-yl)-2-fluoro-N-(8-methylisoquinolin-1-yl)-N-(piperidin-3-yl)benzamide] | 34 | – |
| O=C(c1ccc(-c2cnn3c2CCCC3)cc1F)N(c1nccc2sc(C#CCCCO)cc12)[C@@H]1CCCNC1 [Example 839, 2-fluoro-N-[2-(5-hydroxypent-1-ynyl)thieno[3,2-c]pyridin-4-yl]-N-[(3R)-3-piperidyl]-4-(4,5,6,7-tetrahydropyrazolo[1,5-a]pyridin-3-yl)benzamide] | 1500 | – |
| Cn1cc(-c2ccc(C(=O)N(c3nccc4sc(-c5ccc(C(N)=O)cc5)cc34)[C@@H]3CCCNC3)c(F)c2)nn1 [Example 840, N-[2-(4-carbamoylphenyl)thieno[3,2-c]pyridin-4-yl]-2-fluoro-4-(1-methyltriazol-4-yl)-N-[(3R)-3-piperidyl] benzamide] | 1200 | – |
| Cc1csc2ccnc(N(C(=O)c3ccc(-c4cn(C)nn4)cc3F)[C@@H]3CCCNC3)c12 [Example 841, (R)-2-fluoro-4-(1-methyl-1H-1,2,3-triazol-4-yl)-N-(3-methylthieno[3,2-c]pyridin-4-yl)-N-(piperidin-3-yl)benzamide] | 75 | – |
| C=C(C)c1csc2ccnc(N(C(=O)c3ccc(-c4cn(C)nn4)cc3F)[C@@H]3CCCNC3)c12 [Example 842, (R)-2-fluoro-4-(1-methyl-1H-1,2,3-triazol-4-yl)-N-(piperidin-3-yl)-N-(3-(prop-1-en-2-yl)thieno[3,2-c]pyridin-4-yl)benzamide] | – | 270 |
| Cc1cccc2ccnc(N(C(=O)c3ccc(Nc4ccccn4)nc3)[C@@H]3CCCNC3)c12 [Example 843, (R)—N-(8-methylisoquinolin-1-yl)-N-(piperidin-3-yl)-6-(pyridin-2-ylamino)nicotinamide] | 2200 | – |
| O=C(c1ccc(-n2nnc3cccnc32)cc1F)N(c1nccc2sc(C#CCCCO)cc12)[C@@H]1CCCNC1 [Example 844, (R)-4-(3H-[1,2,3]triazolo[4,5-b]pyridin-3-yl)-2-fluoro-N-(2-(5-hydroxypent-1-yn-1-yl)thieno[3,2-c]pyridin-4-yl)-N-(piperidin-3-yl)benzamide] | 600 | – |
| Cc1cc(-c2cnn(C)c2)cc2ccnc(N(C(=O)c3ccc(-c4cn(C)nn4)cc3F)[C@@H]3CCCNC3)c12 [Example 845, 2-fluoro-N-[8-methyl-6-(1-methylpyrazol-4-yl)-1-isoquinolyl]-4-(1-methyltriazol-4-yl)-N-[(3R)-3-piperidyl]benzamide] | 69 | – |
| Cc1cccc2ccnc(N(C(=O)c3ccc(Nc4ncccn4)nc3)[C@@H]3CCCNC3)c12 [Example 846, (R)—N-(8-methylisoquinolin-1-yl)-N-(piperidin-3-yl)-6-(pyrimidin-2-ylamino)nicotinamide] | 420 | – |
| Cc1cccc2ccnc(N(C(=O)c3ccc(Nc4ncccn4)c(Cl)c3)[C@@H]3CCCNC3)c12 [Example 847, (R)-3-chloro-N-(8-methylisoquinolin-1-yl)-N-(piperidin-3-yl)-4-(pyrimidin-2-ylamino)benzamide] | 2000 | – |
